Measured values from patent publication US8809331B2 (Genentech, Inc., priority 2011, dated 2014).

Target: T1, LRRK2 (Homo sapiens, UniProt Q5S007, G2019S)
T1 construct: purchased Invitrogen PV4882
Assay: In Vitro LRRK2 LabChip Assay (LRRK2 Ki)
Format: biochemical
Settings: Table 5 compounds (formula I)
Protocol: In Vitro LRRK2 LabChip Assay
This assay was used to determine a compound's potency in inhibiting activity of LRRK2 by determining, Kiapp, IC50, or percent inhibition values. In a polypropylene plate, LRRK2, fluorescently-labeled peptide substrate, ATP and test compound were incubated together. Using a LabChip 3000 (Caliper Life Sciences), after the reaction the substrate was separated by capillary electrophoresis into two populations: phosphorylated and unphosphorylated. The relative amounts of each were quantitated by fluorescence intensity. LRRK2 Ki was determined according to the equation: Y=V0*(1−((x+Ki*(1+S/Km)+Et)/(2*Et)−(((x+Ki*(1+S/Km)+Et)^2−(4*Et*x))^0.5)/(2*Et))). Ki values in Table 4 and elsewhere herein are shown in μM.
Assay conditions and materials used were as follows:
LRRK2 Wild type in 5 mM MgCl2: 15 nM (Invitrogen lot #500607F)
Kinase reaction time: 2 hours
Wild type in 5 mM MgCl2: 80 μM
Solid Support: Black 50 μL volume polypropylene 384 well plate (MatriCal cat # MP101-1-PP)
Kinase: LRRK2 G2019S (Invitrogen cat #PV4882). • LRRK2 Wild type (Invitrogen cat #PV4874).
Substrate: 5FAM-[…]-CONH2
Non-binding plate: 384 well clear V-bottom polypropylene plates (Greiner cat #781280).
ATP: 10 mM ATP (Cell Signaling cat #9804).
Coating Reagent #3: Coating Reagent #3 (Caliper).
Complete Reaction Buffer: H2O/25 mM Tris, pH 8.0/5 mM MgCl2/2 mM DTT/0.01% Triton X-100.
Stop Solution: H2O/100 mM HEPES, pH 7.2/0.015% Brij-35/0.2% Coating Reagent #3/20 mM EDTA.
Separation Buffer: H2O/100 mM HEPES, pH 7.2/0.015% Brij-35/0.1% Coating Reagent #3/1:200 Coating Reagent #8/10 mM EDTA/5% DMSO.
Compound Plate Preparation:
For serial dilutions, 34.6 μl DMSO was added to columns 3-24. For the assay controls, 37.5 μl DMSO was added to columns 1 and 2 of rows A and P. a, d and 50 μl 25 μM G-028831 (Staurosporine) was added to columns 1 and 2, row B. For the samples: to start at 100 μM, 37.5 μl DMSO was to columns 1 and 2, then 12.5 μl 10 mM compound; to start at 10 μM, 78 μl DMSO was added to columns 1 & 2, then 2 μl 10 mM compound; and to start at 1 μM, 25 μM compound (2 μl 10 mM cmpd+798 μl DMSO) was added to empty columns 1 and 2. A Precision instrument was used to perform 1:3.16 serial dilutions (“PLK_BM_serial_halflog”).
ATP was diluted to 282.1 μM in Complete Kinase Buffer (final concentration was 130 μM).
Total and Blank Preparation:
In Complete Reaction Buffer, substrate was diluted to 4 μM. Equal volumes of Complete Reaction Buffer and 4 μM substrate were combined to obtain the blank. Equal volumes of Complete Reaction Buffer and 4 μM substrate were combined and to the combined solution was added 2× final LRRK2 concentration.
To a 50 μl polypropylene plate, 5 μl/well buffer/substrate was added by hand to Blank wells. A Biomek FX was used to start the kinase reaction (“PLK SAR 23 ATP”). The following were added to the appropriate wells:
5 μl/well compound/ATP in Assay Plate;
5 μl/well kinase/substrate in Assay Plate;
The plate was incubated for 2 hours in the dark. Biomek FX was used to stop the kinase reaction (“PLK Stop”), and 10 μl/well Stop solution was added to the Assay Plate. Results were read on the LabChip 3000.
The LabChip 3000 was run using the job “LRRK2 IC50” with the following job settings:
Downstream voltage: −500 V
Upstream voltage: −2350 V
Post sample buffer sip time: 75 seconds
Post dye buffer sip time: 75 seconds
Final delay time: 200 seconds

T1 sequence (Q5S007 whole entry G2019S): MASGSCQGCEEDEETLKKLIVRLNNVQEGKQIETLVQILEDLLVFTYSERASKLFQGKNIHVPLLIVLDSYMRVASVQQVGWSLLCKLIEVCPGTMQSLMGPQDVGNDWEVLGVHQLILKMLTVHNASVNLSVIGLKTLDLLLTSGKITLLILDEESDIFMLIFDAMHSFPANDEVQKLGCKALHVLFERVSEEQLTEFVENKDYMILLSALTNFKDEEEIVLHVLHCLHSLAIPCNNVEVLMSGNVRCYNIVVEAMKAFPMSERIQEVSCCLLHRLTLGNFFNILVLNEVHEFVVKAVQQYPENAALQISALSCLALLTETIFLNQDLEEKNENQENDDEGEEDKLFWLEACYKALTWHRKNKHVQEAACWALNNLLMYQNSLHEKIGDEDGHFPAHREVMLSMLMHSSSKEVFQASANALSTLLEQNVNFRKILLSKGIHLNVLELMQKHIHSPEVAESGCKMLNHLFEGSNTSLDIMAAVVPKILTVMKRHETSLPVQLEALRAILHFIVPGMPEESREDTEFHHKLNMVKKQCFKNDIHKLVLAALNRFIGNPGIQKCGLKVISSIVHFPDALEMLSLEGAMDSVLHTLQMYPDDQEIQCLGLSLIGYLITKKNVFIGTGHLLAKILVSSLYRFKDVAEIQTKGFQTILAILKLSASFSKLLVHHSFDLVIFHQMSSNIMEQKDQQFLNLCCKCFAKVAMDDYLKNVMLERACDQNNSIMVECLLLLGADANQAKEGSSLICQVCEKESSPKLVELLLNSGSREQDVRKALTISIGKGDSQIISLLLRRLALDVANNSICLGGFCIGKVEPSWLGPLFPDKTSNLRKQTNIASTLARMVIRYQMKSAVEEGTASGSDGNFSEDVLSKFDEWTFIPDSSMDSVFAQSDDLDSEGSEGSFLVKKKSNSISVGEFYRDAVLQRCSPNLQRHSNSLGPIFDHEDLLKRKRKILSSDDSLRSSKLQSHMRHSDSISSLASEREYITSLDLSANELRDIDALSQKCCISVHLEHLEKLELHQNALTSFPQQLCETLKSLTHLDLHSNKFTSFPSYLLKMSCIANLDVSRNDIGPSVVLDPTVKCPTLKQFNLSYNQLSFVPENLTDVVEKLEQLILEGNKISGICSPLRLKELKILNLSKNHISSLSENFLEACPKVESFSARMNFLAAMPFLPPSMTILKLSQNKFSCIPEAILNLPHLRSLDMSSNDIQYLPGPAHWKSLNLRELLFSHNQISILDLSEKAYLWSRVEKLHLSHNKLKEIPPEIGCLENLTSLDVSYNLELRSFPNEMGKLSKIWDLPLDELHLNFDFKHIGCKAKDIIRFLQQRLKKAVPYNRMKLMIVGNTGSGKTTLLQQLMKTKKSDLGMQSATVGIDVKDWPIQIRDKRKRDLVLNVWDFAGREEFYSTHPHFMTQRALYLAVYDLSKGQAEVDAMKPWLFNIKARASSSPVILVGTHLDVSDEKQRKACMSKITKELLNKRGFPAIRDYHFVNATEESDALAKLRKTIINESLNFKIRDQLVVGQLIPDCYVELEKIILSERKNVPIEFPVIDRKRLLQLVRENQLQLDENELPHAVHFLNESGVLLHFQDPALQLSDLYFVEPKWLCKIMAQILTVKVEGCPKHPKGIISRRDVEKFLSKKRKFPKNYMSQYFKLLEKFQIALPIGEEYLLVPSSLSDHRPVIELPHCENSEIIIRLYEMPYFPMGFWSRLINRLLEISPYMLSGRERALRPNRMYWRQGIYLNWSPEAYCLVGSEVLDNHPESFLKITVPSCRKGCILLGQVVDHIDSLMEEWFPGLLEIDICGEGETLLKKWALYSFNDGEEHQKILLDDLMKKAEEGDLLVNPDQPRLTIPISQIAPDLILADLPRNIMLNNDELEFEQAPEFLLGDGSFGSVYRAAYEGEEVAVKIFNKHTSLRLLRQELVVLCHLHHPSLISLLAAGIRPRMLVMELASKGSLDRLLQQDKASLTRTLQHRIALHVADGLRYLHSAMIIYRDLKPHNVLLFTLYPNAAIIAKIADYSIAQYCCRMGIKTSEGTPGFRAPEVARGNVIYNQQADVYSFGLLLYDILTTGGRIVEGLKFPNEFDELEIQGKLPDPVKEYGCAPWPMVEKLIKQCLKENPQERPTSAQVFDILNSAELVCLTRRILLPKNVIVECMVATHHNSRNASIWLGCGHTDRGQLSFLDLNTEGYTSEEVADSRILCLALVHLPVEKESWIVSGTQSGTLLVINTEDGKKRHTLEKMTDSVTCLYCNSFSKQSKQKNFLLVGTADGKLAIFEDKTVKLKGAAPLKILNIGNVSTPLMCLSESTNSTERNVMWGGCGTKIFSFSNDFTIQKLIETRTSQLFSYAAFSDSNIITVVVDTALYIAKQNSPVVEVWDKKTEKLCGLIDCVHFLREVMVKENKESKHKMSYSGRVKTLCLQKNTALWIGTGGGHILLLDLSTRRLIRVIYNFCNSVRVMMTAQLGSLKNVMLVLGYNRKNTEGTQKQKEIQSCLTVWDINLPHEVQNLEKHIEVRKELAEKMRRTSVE

SMILES | Ki
COc1cc(C(=O)N2CCOCC2)c(F)cc1Nc1ncc(C(F)(F)F)c(N2CCC2)n1 [Compound 26, [4-(4-Azetidin-1-yl-5-trifluoromethyl-pyrimidin-2-ylamino)-2-fluoro-5-methoxy-phenyl]-morpholin-4-yl-methanone] | 31.5 nM
CNc1nc(Nc2cc(OC)c(C(=O)NCC(C)(C)O)cc2F)ncc1C(F)(F)F [Compound 27, 5-Fluoro-N-(2-hydroxy-2-methyl-propyl)-2-methoxy-4-(4-methylamino-5-trifluoromethyl-pyrimidin-2-ylamino)-benzamide] | 11.7 nM
CCNc1nc(Nc2cc(OC)c(C(=O)NCC(C)(C)O)cc2F)ncc1C(F)(F)F [Compound 28, 4-(4-Ethylamino-5-trifluoromethyl-pyrimidin-2-ylamino)-5-fluoro-N-(2-hydroxy-2-methyl-propyl)-2-methoxy-benzamide] | 6.42 nM
CNc1nc(Nc2cc(OC)c(C(=O)N(C)CC(C)(C)O)cc2F)ncc1C(F)(F)F [Compound 29, 5-Fluoro-N-(2-hydroxy-2-methyl-propyl)-2-methoxy-N-methyl-4-(4-methylamino-5-trifluoromethyl-pyrimidin-2-ylamino)-benzamide] | 19.5 nM
CCNc1nc(Nc2cc(OC)c(C(=O)N(C)CC(C)(C)O)cc2F)ncc1C(F)(F)F [Compound 30, 4-(4-Ethylamino-5-trifluoromethyl-pyrimidin-2-ylamino)-5-fluoro-N-(2-hydroxy-2-methyl-propyl)-2-methoxy-N-methyl-benzamide] | 7.07 nM
CCNc1nc(Nc2cc(F)c(C(=O)N3CCOCC3)cc2F)ncc1C(F)(F)F [Compound 31, [4-(4-Ethylamino-5-trifluoromethyl-pyrimidin-2-ylamino)-2,5-difluoro-phenyl]-morpholin-4-yl-methanone] | 9.48 nM
COc1cc(C(=O)N2CCOCC2)c(F)cc1Nc1ncc(C(F)(F)F)c(NC(C)C)n1 [Compound 32, [2-Fluoro-4-(4-isopropylamino-5-trifluoromethyl-pyrimidin-2-ylamino)-5-methoxy-phenyl]-morpholin-4-yl-methanone] | 3.49 nM
CNc1nc(Nc2ccc(C(=O)N3CCOCC3)c(C)c2OC)ncc1C(F)(F)F [Compound 33, [3-Methoxy-2-methyl-4-(4-methylamino-5-trifluoromethyl-pyrimidin-2-ylamino)-phenyl]-morpholin-4-yl-methanone] | 114 nM
CNc1nc(Nc2cc(F)c(C(=O)NCC(C)(C)O)cc2OC)ncc1C(F)(F)F [Compound 35, 2-Fluoro-N-(2-hydroxy-2-methyl-propyl)-5-methoxy-4-(4-methylamino-5-trifluoromethyl-pyrimidin-2-ylamino)-benzamide] | 4.36 nM
CNc1nc(Nc2cc(F)c(C(=O)N3C[C@H](F)[C@@H](F)C3)cc2OC)ncc1C(F)(F)F [Compound 36, ((3S,4S)-3,4-Difluoro-pyrrolidin-1-yl)-[2-fluoro-5-methoxy-4-(4-methylamino-5-trifluoromethyl-pyrimidin-2-ylamino)-phenyl]-methanone] | 4.42 nM
CNc1nc(Nc2ccc(C(=O)NCC(C)(C)O)c(F)c2OC)ncc1C(F)(F)F [Compound 38, 2-Fluoro-N-(2-hydroxy-2-methyl-propyl)-3-methoxy-4-(4-methylamino-5-trifluoromethyl-pyrimidin-2-ylamino)-benzamide] | 11.6 nM
CNc1nc(Nc2ccc(C(=O)N3CCOCC3)cc2OC(F)F)ncc1C(F)(F)F [Compound 47, [3-Difluoromethoxy-4-(4-methylamino-5-trifluoromethyl-pyrimidin-2-ylamino)-phenyl]-morpholin-4-yl-methanone] | 5.98 nM

Further lines, results first:

Ki | SMILES
0.507 nM | COc1cc(C(=O)N2CCOCC2)c(F)cc1Nc1ncc(C(F)(F)F)c(NC2CC2)n1 [Compound 25, [4-(4-Cyclopropylamino-5-trifluoromethyl-pyrimidin-2-ylamino)-2-fluoro-5-methoxy-phenyl]-morpholin-4-yl-methanone]
1.3 nM | CCNc1nc(Nc2cc(F)c(C(=O)N3CC4(CCO4)C3)cc2OC)ncc1C(F)(F)F [Compound 34, [4-(4-Ethylamino-5-trifluoromethyl-pyrimidin-2-ylamino)-2-fluoro-5-methoxy-phenyl]-(1-oxa-6-aza-spiro[3.3]hept-6-yl)-methanone]
1.31 nM | CCNc1nc(Nc2cc(F)c(C(=O)NC)cc2OC)ncc1C(F)(F)F [Compound 37, 4-(4-Ethylamino-5-trifluoromethyl-pyrimidin-2-ylamino)-2-fluoro-5-methoxy-N-methyl-benzamide]
1.46 nM | CNc1nc(Nc2cc(OC)c(C(=O)N3CCC(F)(F)C3)cc2OCCF)ncc1C(F)(F)F [Compound 39, (3,3-Difluoro-pyrrolidin-1-yl)-[5-(2-fluoro-ethoxy)-2-methoxy-4-(4-methylamino-5-trifluoromethyl-pyrimidin-2-ylamino)-phenyl]-methanone]
2.76 nM | CNc1nc(Nc2cc(OC)c(C(=O)N3CC4(CCO4)C3)cc2Cl)ncc1C(F)(F)F [Compound 40, [5-Chloro-2-methoxy-4-(4-methylamino-5-trifluoromethyl-pyrimidin-2-ylamino)-phenyl]-(1-oxa-6-aza-spiro[3.3]hept-6-yl)-methanone]
2.99 nM | CCNc1nc(Nc2ccc(C(=O)N3CCOCC3)c(F)c2F)ncc1C(F)(F)F [Compound 41, [4-(4-Ethylamino-5-trifluoromethyl-pyrimidin-2-ylamino)-2,3-difluoro-phenyl]-morpholin-4-yl-methanone]
0.31 nM | COc1cc(C(=O)N2CCOCC2)c(C)cc1Nc1ncc(C(F)(F)F)c(NC2CC2)n1 [Compound 42, [4-(4-Cyclopropylamino-5-trifluoromethyl-pyrimidin-2-ylamino)-5-methoxy-2-methyl-phenyl]-morpholin-4-yl-methanone]
0.832 nM | CCNc1nc(Nc2cc(OC)c(C(=O)N3CC4(COC4)C3)cc2Cl)ncc1C(F)(F)F [Compound 43, [5-Chloro-4-(4-ethylamino-5-trifluoromethyl-pyrimidin-2-ylamino)-2-methoxy-phenyl]-(2-oxa-6-aza-spiro[3.3]hept-6-yl)-methanone]
0.31 nM | CCNc1nc(Nc2cc(C)c(C(=O)N3CCOCC3)cc2OC)ncc1C(F)(F)F [Compound 44, [4-(4-Ethylamino-5-trifluoromethyl-pyrimidin-2-ylamino)-5-methoxy-2-methyl-phenyl]-morpholin-4-yl-methanone]
0.31 nM | COc1cc(C(=O)NCC(C)(C)O)c(F)cc1Nc1ncc(C(F)(F)F)c(NC2CC2)n1 [Compound 45, 4-(4-Cyclopropylamino-5-trifluoromethyl-pyrimidin-2-ylamino)-2-fluoro-N-(2-hydroxy-2-methyl-propyl)-5-methoxy-benzamide]
3.03 nM | CCNc1nc(Nc2ccc(C(=O)NC(C)(C)C)cc2OC)ncc1C#N [Compound 46, N-tert-Butyl-4-(5-cyano-4-ethylamino-pyrimidin-2-ylamino)-3-methoxy-benzamide]
3.48 nM | CNc1nc(Nc2cc(F)c(C(=O)N3CCOCC3)cc2OCCF)ncc1C(F)(F)F [Compound 48, [2-Fluoro-5-(2-fluoro-ethoxy)-4-(4-methylamino-5-trifluoromethyl-pyrimidin-2-ylamino)-phenyl]-morpholin-4-yl-methanone]
